The target of test [1] is T1, wild-type E. coli DNA gyrase (recombinant GyrA/GyrB) (Escherichia coli, UniProt P0AES6).
T1 construct: made in house; host or cells: E. coli BL21(DE3) RIL
Nature of the test: Gel supercoiling assay, reconstituted wild-type gyrase. Format: biochemical. The procedure:
(§1) Conditions to measure the supercoiling of a relaxed, closed-circular plasmid substrate and cleavage complex stabilization in agarose gels were adapted from the literature and carried out as described below. Plasmid supercoiling reactions were assembled by combining 0.4 μL compound (in 100% DMSO), 12.5 μL H2O, 4 μL 5Xbuffer, 0.4 μL relaxed pUC19 DNA substrate (0.5 μg), […] dilute DNA gyrase (buffer, substrate, and enzyme from New England Biolabs, Beverly, MA). Alternatively the substrate pHOT-1 (TopoGEN, Buena Vista, CO) was used as noted (the substrate from New England Biolabs has been discontinued). P. aeruginosa DNA gyrase was supplied by Inspiralis, Norwich, UK. […] The gel was illuminated with UV light, photographed, and DNA quantitated with an Alpha Imager and accompanying software (ProteinSimple, San Jose, CA). […]
(§2) The E. coli gyrA and gyrB (wild-type and t1537c (F513L)) genes with a N-terminal His6 tag sequence followed by Tobacco Etch Virus (TEV) cleavage site ([…]) were cloned into pET28(+) vector (EMD Millipore). […] Fractions containing gyrase subunit protein (as monitored by sodium dodecyl sulfate polyacrylamide gel electrophoresis (SDS-PAGE)) were pooled and loaded onto a Q-Sepharose column (GE Healthcare, Princeton, NJ, USA) equilibrated in 20 mM Tris-HCl (pH = 7.9), 25mM NaCl, 10% glycerol, and 2 mM β-mercaptoethanol. […]

For a further test, the target named is T2, P. aeruginosa DNA gyrase (Pseudomonas aeruginosa, UniProt Q9I7C2).
T2 construct: purchased Inspiralis, Norwich, UK
Nature of the test: Agarose gel DNA gyrase supercoiling assay, P. aeruginosa. In kind it is biochemical. The following applies: gel-based assay, Fig 3B. The procedure: Conditions to measure the supercoiling of a relaxed, closed-circular plasmid substrate and cleavage complex stabilization in agarose gels were adapted from the literature and carried out as described below. Plasmid supercoiling reactions were assembled by combining 0.4 μL compound (in 100% DMSO), 12.5 μL H2O, 4 μL 5Xbuffer, 0.4 μL relaxed pUC19 DNA substrate (0.5 μg), […] dilute DNA gyrase (buffer, substrate, and enzyme from New England Biolabs, Beverly, MA). Alternatively the substrate pHOT-1 (TopoGEN, Buena Vista, CO) was used as noted (the substrate from New England Biolabs has been discontinued). P. aeruginosa DNA gyrase was supplied by Inspiralis, Norwich, UK. Reactions were allowed to proceed for 30 min. at 37°C after which 5 μL of stop buffer (5% sarkosyl, 25% glycerol, 1X Blue Juice [Invitrogen, Carlsbad, CA]) were added. Reactions were then extracted with 20 μL chloroform/isoamylOH (24:1) and a portion of the aqueous phase was loaded into a well in a 1% agarose/Tris-borate EDTA gel. Electrophoresis was conducted at 35 VDC until the loading dye migrated about 6.5 cm down the gel. DNA in the gel was then stained in 0.5 μg/mL ethidium bromide in water for 30 min. and rinsed (3X) in H2O. The gel was illuminated with UV light, photographed, and DNA quantitated with an Alpha Imager and accompanying software (ProteinSimple, San Jose, CA). […]

Test [2] deals with T3, E. coli DNA gyrase GyrB (F513L) (Escherichia coli, UniProt P0AES6, F513L).
T3 construct: His6 tag followed by TEV site (X1: […]) (N, cleaved yes); made in house; host or cells: E. coli BL21(DE3) RIL
As to the kind of experiment: Gel supercoiling assay, reconstituted GyrB (F513L) gyrase. Format: biochemical. The protocol: as §1, §2

A further test deals with E. coli HS151 (qnrVC). As to the kind of experiment: Broth microdilution MIC, E. coli HS151 (qnrVC). In kind it is cell-based. From the text:
E. coli HS151 (ΔtolC) has been described previously. Gyrase inhibitor-resistant isolates (GYR101-108) were derived by selection for spontaneous resistance to MRL-770 or MRL-423 (Fig 1) in E. coli HS151 as described below. E. coli BW25113 and the Keio gene deletion collection based on BW25113 [25] were obtained from Thermo Fisher Scientific (Waltham, MA) and described in [26]. The plasmid-borne FQ resistance determinant, qnrVC3 [27], was kindly provided by D. Hooper (Massachusetts General Hospital). MB9796 (A. baumannii) is a derivative of MB9797 (ATCC19606) lacking lipopolysaccharide. The efflux-defective P. aeruginosa strain MB5890 (CB398) is a derivative of MB5919 (PAO1). MB2884 (E. coli) and CL15245 (K. pneumoniae) are clinical isolates from the Merck & Co., Inc., Kenilworth, NJ, USA, strain collection. S. aureus COL is a methicillin-resistant clinical isolate.
Compound doubling dilutions were prepared in 100% DMSO (Sigma Aldrich) and 2 μL of each dilution was transferred to a 96-well plate with lid (Thermo Scientific). Inoculum for all MIC testing was prepared using the BBL Prompt Inoculation System (Becton Dickinson, Franklin Lakes, NJ USA) as described by the manufacturer to produce a suspension of cells at approximately 1.5 x 10^8 colony forming units (CFU)/mL [34–36] and a further dilution (1:1000) was made into cation adjusted Mueller-Hinton broth (CAMH broth, Becton-Dickinson). One hundred μL of this inoculum were then transferred to each well of the 96-well plate containing diluted compound (above). Plates were covered and incubated overnight (18 hrs.) at 37°C.
On the technique in general: Dilution methods test growth across graded concentrations, often in twofold steps.

In brackets after ≈: the same amount, converted by molar mass.

T2 sequence (Q9I7C2 whole entry): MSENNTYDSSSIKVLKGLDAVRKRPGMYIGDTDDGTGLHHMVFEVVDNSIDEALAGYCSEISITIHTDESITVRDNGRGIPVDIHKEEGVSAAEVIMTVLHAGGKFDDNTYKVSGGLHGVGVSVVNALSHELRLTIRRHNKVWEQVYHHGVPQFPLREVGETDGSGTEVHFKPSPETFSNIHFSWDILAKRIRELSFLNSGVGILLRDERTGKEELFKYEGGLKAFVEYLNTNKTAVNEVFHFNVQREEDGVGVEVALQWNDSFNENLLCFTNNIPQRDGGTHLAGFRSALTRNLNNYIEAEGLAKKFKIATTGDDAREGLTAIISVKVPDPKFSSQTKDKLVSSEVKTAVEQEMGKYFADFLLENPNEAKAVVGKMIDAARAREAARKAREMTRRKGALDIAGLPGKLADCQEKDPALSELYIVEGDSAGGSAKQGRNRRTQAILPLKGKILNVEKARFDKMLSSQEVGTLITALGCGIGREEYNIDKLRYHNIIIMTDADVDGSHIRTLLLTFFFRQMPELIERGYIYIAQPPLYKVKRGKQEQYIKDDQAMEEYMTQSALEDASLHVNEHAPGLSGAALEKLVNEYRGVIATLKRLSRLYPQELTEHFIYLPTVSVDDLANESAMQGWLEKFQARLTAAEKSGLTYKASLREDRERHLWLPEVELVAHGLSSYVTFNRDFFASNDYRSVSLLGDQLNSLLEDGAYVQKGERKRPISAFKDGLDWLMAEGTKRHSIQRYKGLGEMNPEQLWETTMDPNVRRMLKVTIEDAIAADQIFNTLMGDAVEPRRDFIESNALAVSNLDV
T2 sequence (P48372 whole entry, further chain): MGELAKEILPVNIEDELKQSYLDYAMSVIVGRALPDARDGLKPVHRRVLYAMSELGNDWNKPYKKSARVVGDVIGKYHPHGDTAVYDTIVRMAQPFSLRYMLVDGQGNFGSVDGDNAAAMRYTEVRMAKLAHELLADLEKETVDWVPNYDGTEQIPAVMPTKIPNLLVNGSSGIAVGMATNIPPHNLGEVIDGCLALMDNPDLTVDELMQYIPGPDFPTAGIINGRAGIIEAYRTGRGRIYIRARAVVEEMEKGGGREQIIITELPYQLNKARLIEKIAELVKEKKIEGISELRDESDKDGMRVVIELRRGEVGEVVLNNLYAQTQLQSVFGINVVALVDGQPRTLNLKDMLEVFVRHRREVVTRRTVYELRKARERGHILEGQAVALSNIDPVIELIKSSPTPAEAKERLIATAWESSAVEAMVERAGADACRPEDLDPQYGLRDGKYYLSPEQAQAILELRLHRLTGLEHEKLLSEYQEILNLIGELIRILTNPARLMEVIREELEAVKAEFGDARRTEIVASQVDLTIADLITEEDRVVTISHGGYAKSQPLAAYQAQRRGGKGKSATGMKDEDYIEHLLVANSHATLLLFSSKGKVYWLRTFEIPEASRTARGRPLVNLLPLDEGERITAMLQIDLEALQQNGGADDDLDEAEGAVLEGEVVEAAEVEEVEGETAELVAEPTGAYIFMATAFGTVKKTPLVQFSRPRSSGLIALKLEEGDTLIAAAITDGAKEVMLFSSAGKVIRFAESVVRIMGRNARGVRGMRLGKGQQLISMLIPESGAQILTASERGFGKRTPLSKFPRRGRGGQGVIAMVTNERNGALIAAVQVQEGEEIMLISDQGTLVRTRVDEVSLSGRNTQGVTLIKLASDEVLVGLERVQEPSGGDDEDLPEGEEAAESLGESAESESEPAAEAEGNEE

For the compound `Cn1ncc2cc(-c3nnnn3C3CCN(C(=O)Nc4ccc(Cl)c(Cl)c4)CC3)ccc21` [MRL-1082], the half-maximal inhibitory concentration (IC50) in test [1] is approximately 3.5 µM; in test [2] it was more than 200 µM. The “activity against P. aeruginosa DNA gyrase” value on P. aeruginosa DNA gyrase was “active”.
Turning to `Cn1ncc2cc(-c3cnnn3C3CCN(C(=O)Nc4cc(Cl)cc(Cl)c4)CC3)ccc21` [MRL-423], the “resistance conferred by qnrVC3 expression” value in the test on E. coli HS151 (qnrVC) (E. coli HS151 with plasmid qnrVC3 vs HS151) is recorded as “no effect”. The MIC against E. coli HS151 (qnrVC) (Escherichia coli) came out at 0.25 µg/mL (≈ 0.532 µM).

In general, IC50 refers to the concentration at which inhibition is half-maximal. Broadly, the MIC is the least concentration at which growth counts as inhibited.
